Experimental findings from patent publication US20250017888A1, “COMPOUNDS FOR TREATING DISEASES ASSOCIATED WITH HYALURONAN OVERPRODUCTION” (THE ROYAL VETERINARY COLLEGE, priority 2021, published 2025) are described below.

The subject of one data set is fibroblasts. The data set is described as follows: Alamar blue staining of fibroblasts. The following applies: Fibroblast. It counts as cell-based. How it is done:
(§1) The hyaluronan synthase activity (Prehm, P. and Schumacher, U., Biochem. Pharmacol. 2004, 68, 1401-1410), the cytotoxicity of the drugs (O'Brien, J. et al., Eur. J. Biochem. 2000, 267, 5421-5426), proteoglycan synthesis rate, hyaluronan (Prehm, P. J. Rheumatol., 2005, 32, 690-696) and proteoglycan (Bjornsson, S. Anal. Biochem. 1993, 210, 282-291) were determined as described. The effect of the prenylflavonoids on the MRP5 export rate was measured with fluorescein diacetate as described (Schulz, T., Schumacher, U., and Prehm, P., J Biol. Chem., 2007, 282, 20999-21004). The determination of the IC50 values on the phosphodiesterase 5 was performed according to the instructions of BPS Bioscience. The culture of bovine chondrocytes in alginate beads and of explants of bovine cartilage was described previously (Deiters, B. and Prehm, P. Arthritis Res. Ther., 2008, 10, R8; Prehm, P. J. Rheumatol. 2005, 32, 690-696). Osteoarthritic reactions were induced in chondrocytes growing in alginate beads by incubation with medium containing 10 ng/ml of II-17 for 6 days, and in cartilage explants with 10 ng/ml of II-17 and 5 ng/ml of II-1α. The supernatants were withdrawn and stored at −20° C. for later analysis. The explants were weighed and extracted with 1 ml of 4 M guanidinium-HCl for 72 hours at 4° C. The proteoglycan concentrations were determined in the extracts.
(In general: The colour change of resazurin is a common sign of viable cells or microbes.)

The test system of data set [1] is hyaluronan export from chondrosarcoma cells. The data set is described as follows: Inhibition of hyaluronan export / production in chondrosarcoma cells. It counts as cell-based. As for the experimental part:
as §1
Chondrosarcoma cells were plated on a 96 well microtiter plate and in the presence of increasing flavonoid concentrations. After 2 days the concentration of hyaluronan was determined in the culture supernatant.

The test system of data set [2] is Str/ort mice. The data set is described as follows: Health evaluation of treated Str/ort mice. It counts as in vivo, mouse. Conditions: 50 mg/kg intraperitoneally, 18 weeks, vs vehicle. As for the experimental part:
(§2) At 10-13 weeks of age, 21 male Str/ort mice (n=7/group) were assigned randomly to vehicle, hylin-betaine and xantho-betaine groups and were treated intraperitoneally 18 weeks with either vehicle (5% DMSO in 95% peanut oil), 50 mg/kg compound of Example 1 (“hylin-betaine”) in 5% DMSO and 95% peanut oil or 50 mg/kg compound of Example 2 (“xantho-betaine”) in 5% DMSO and 95% peanut oil.
To assess the health status after hylin-betaine and xantho-betaine treatment, mice were monitored for their health status. The monitoring criteria were body surface temperature, body weight, gait, coat condition, skin tenting for dehydration, hunching, activity, breathing rate and general body condition. Mice were scored blind for each one of these criteria from 1-5 except for body weight and temperature.

Data set [3] relates to Str/ort mice. Briefly: Gait analysis (treadmill, Digigait) in Str/ort mice. It counts as in vivo, mouse. As for the experimental part: as §2
Gait was monitored using a treadmill-based video system (DigigaitTM system) in three treatment groups of mice at three time point, week 1, week 9 and week 18 of treatment. The number of mice was 7, 7 and 5 in groups 1, 2 and 3, respectively.
[…] gait descriptors were used for the analyses. Thirty-four descriptors were obtained directly from the software of the system in the 4 limbs (LF: left front; RF: right front; LR: left rear; RR: right rear). All the others (143) were calculated indexes from gait measurements including swing, stance, brake, propel and stride times, stride length, frequency and coefficient of variation, paw area and paw angle and the variability of those two traits, the coefficient of variation of swing duration mid line distance, and minimum and maximum dAdT. The ratios of times were calculated in the 4 limbs: Brake, Propel, and Swing times relative to Stance and Stride times, Stance/Swing and Stance/Stride. In addition, the following additional indexes were considered:
In order to investigate whether there were differences among groups for each descriptor at the three experimental dates, an ANOVA was performed using data corresponding to each descriptor and date. Bonferroni correction was applied to counteract the problem of multiple comparisons.
A t-test analysis was also performed comparing only two groups at a time. In order to assess whether differences between both groups could be due to differences in gait change regarding the initial condition (at 2014/12/23), two sets of analyses were performed for data at 2015/02/18 and 2015/04/14, respectively by using Logistic Regression Analysis. The model included two independent variables: the initial value for each descriptor and the difference between the corresponding value at 2015/02/18 (or 2015/04/14) and the initial value. Bonferroni correction was also applied.

The test system of another data set is chondrosarcoma cells. Briefly: Uptake of flavonoids into chondrosarcoma cells by intracellular fluorescence. It counts as cell-based. The following applies: concentration dependence, FIG. 2A. How it is done:
Confluent monolayers of chondrosarcoma cells on 96 well microtiter plates were incubated with 100 μM solutions of flavonoids in serum-free Quantum medium. Changes in fluorescence were monitored from the bottom of the wells at excitation and emission wavelengths of 340 nm and 450 nm for xanthohumol and at 440 nm and 530 nm for quercetin, respectively.
Flavonoids are weakly fluorescent in aqueous buffer, but greatly enhance the fluorescence in the presence of proteins (Sengupta, B. and Sengupta, P. K., Biochem. Biophys. Res. Commun., 2002, 299, 400-403). This property was used to follow the uptake of quercetin and xanthohumol into chondrosarcoma cells.

The nature of data set [4]: Alamar blue toxicity assay (FIG. 1). Conditions: below concentrations of 100 μM. It counts as cell-based. How it is done:
as §1
The toxicity was determined by the Alamar blue assay.

Data set [5] has as its system chondrosarcoma cells (SW1353). Briefly: Alamar blue staining of chondrosarcoma. It counts as cell-based. The following applies: Homo sapiens. How it is done:
as §1
Chondrosarcoma cells (SW1353 from the American Type Culture Collection) were grown in Dulbecco's medium supplemented with streptomycin/penicillin (100 units of each/ml), 10% foetal calf serum or in serum free Quantum medium supplemented with streptomycin/penicillin (100 units of each/ml), kanamycin (100 units/ml).

Setting [6] is: 50 mg/kg intraperitoneally, 18 weeks.

In general, IC50 refers to the concentration at which inhibition is half-maximal. A high value points to weaker potency. For `COc1cc(O)c(CC=C(C)C)c(O)c1C(=O)/C=C/c1ccc(OC(=O)C[N+](C)(C)C)cc1.[Cl-]` [Xantho-betaine, (E)-2-(4-(3-(2,4-dihydroxy-6-methoxy-3-(3-methylbut-2-en-1-yl)phenyl)-3-oxoprop-1-en-1-yl)phenoxy)-N,N,N-trimethyl-2-oxoethanaminium chloride], the IC50 with fibroblasts was 80 µM; in data set [1] it was 18 µM; in data set [5] it was 275 µM. The “inhibition of hyaluronan export” value in data set [1] (culture supernatant after 2 days, comparison with parent compound, particularly below 3 μM) is reported as “slightly less effective than xanthohumol”. In addition, in the data set with Str/ort mice [2], the “health status: weight, hunching, gait, activity, vocalisation and respiration scores, coat condition” value is “does not alter”. Further, the “mice that refused to run (drop-out) during the gait studies” value in the data set on Str/ort mice [3] (setting [6]) was determined as 2 mice. Further, the “percentage of drop-out regarding the total number of runs” value in the data set with Str/ort mice [3] (setting [6]) is 13.3%. The “distribution of gait data (runs) by treatment group” value stood at 4 with Str/ort mice [3] (2014 Dec. 23), 5 in the data set with Str/ort mice [3] (2015 Apr. 14) and 4 in the data set with Str/ort mice [3] (2015 Feb. 18). For the same molecule, in the data set with Str/ort mice [3] (any time point, compared with vehicle group), the “effect on all gait descriptors” value was “no significant effect”. In addition, the “uptake into chondrosarcoma cells (intracellular fluorescence)” value in the data set with chondrosarcoma cells is given as “taken up in a concentration dependent manner”. Further, the “toxicity in Alamar blue assay” value in data set [4] is “not toxic”.
